From patent US11589588B2, “Methods of identification and use of nematicide compounds” (UNIVERSITY OF NEW HAMPSHIRE, priority 2013, dated 2023)

Experiments:
Assay type in all cases: in vivo
C. elegans [1] = assay: Egg hatching / fecundity of C. elegans continuously exposed to PDE inhibitors; conditions: continuous exposure at concentrations maximally reducing motility; juveniles counted on Day 5; FIG. 6; experiment performed once
Experimental: The number of newly hatched juveniles on Day 5 was counted and normalized to the reproductive success of the control condition (no inhibitor). This experiment was performed once.
To assess disruption of activities such as developmental progression leading to egg hatching in nematodes, C. elegans eggs are exposed to PDE inhibitors. The nematode eggs are exposed to a range of concentrations of family-specific PDE inhibitors, and inhibitors that prevent egg hatching are identified.
The number of hatched larvae in the treated group was compared to a control (untreated) group and the results are evaluated as a function of time up to 3 days after exposure to the PDE inhibitor.
The ability of these various PDE inhibitors to reduce the fecundity of C. elegans was also examined.

C. elegans [2] = assay: Recovery of motility after contact with PDE inhibitor ceased; conditions: 24 hours exposure, evaluated 24 hours after inhibitor removed
Experimental: Motility is shown relative to the control condition (i.e., motility of worms not contacted with the test drug). The black bars represent the fraction of motile worms after 24 hours of exposure to the PDE inhibitor. The grey bars represent the fraction of motile worms 24 hours after the exposure to the inhibitor ceased. The experiment was repeated three times and the data points represent the mean plus and minus the standard deviation.
(§1) The dauer state is morphologically similar to the infective states in juvenile phytoparasitic nematodes.
For the study, nematodes were exposed for 24 hours with the PDE inhibitor (at the concentration indicated in FIG. 15) and then plated out and evaluated for normal motility as described elsewhere in the Examples. […] Motility is shown relative to control motility in worms not contacted with the test drug.

C. elegans [3] = assay: Motility of dauer state C. elegans exposed to PDE inhibitors; conditions: among several PDE inhibitors tested
Experimental: as §1
For this study, worms were contacted with drugs and scored for motility at various time points after the drug treatment to determine how quick the motility defect occurred. Nematodes were scored at 0, 1, 2, 4, 8, and 24 hours after addition of the treatment. Concentrations were 4.9 μM cilostazol, 2.5 μM Rolipram, and 6.6 μM papaverine. […] The time is shown in hours after contact was initiated and the effect was determined by assessing the fraction of contacted works that were motile, relative to control worm motility (i.e., worms not contacted with the tested drug). Cilostazol, rolipram and papaverine were tested. […] The time is shown in hours after contact and the effect was determined by assessing the fraction of contacted works that were motile, relative to control worm motility (controls were worms not contacted with tested drug).

Compound | effect on egg hatching (number of newly hatched juveniles relative to control) (C. elegans [1]) | reversibility of drug effects on motility (C. elegans [2]) | effectiveness in reducing motility (C. elegans [3])
CC(C)Cn1c(=O)n(C)c(=O)c2[nH]cnc21 [IBMX, 3-isobutyl-1-methylxanthine] | most effective in preventing egg hatching | – | –
COc1ccc(C2CNC(=O)C2)cc1OC1CCCC1 (centres unmarked) [rolipram] | – | reversed after 24 hours | most effective in reducing motility
COc1ccc(Cc2nccc3cc(OC)c(OC)cc23)cc1OC [papaverine] | – | reversed after 24 hours | most effective in reducing motility
OCCN(CCO)c1nc(N2CCCCC2)c2nc(N(CCO)CCO)nc(N3CCCCC3)c2n1 [dipyridamole] | enhanced egg hatching | – | –
Cc1[nH]c(=O)c(C#N)cc1-c1ccncc1 [milrinone] | – | reversed after 24 hours | most effective in reducing motility
CCOC(=O)C1=C[C@]2(CC)CCCN3CCc4c(n1c1ccccc41)[C@@H]32 [vinpocetine] | most effective in preventing egg hatching | – | –
O=C1CCc2cc(OCCCCc3nnnn3C3CCCCC3)ccc2N1 [cilostazol] | most effective in preventing egg hatching | reversed after 24 hours | most effective in reducing motility
Cn1cc(-c2ccncc2)c(-c2ccc(OCc3ccc4ccccc4n3)cc2)n1 [MP10] | – | reversed after 24 hours | most effective in reducing motility
